“And” between values parts separate entries of the source, which are not always exact repeats. Identical values can stand only once. Counter-ions that a name gives are not always drawn. Like-named read-outs stand apart in the source and are kept apart here. Bridge positions count the residues as written; N and C are the ends. Square brackets hold non-standard residues; d marks the D form. Ends that are not written are not given here. Peptide text beside a SMILES is read from it. I, II: the chains in the order shown. 2Nal = N[C@@H](Cc1ccc2ccccc2c1)C(=O)O; Lys(iPr) = CC(C)NCCCC[C@H](N)C(=O)O
Legend:
CXCR4 = CXCR4 (Homo sapiens, UniProt P61073); assay: 12G5 antibody competition assay on SupT1 cells; format: binding; details: for IC50: APC-labelled 12G5, 2 h at 4 °C, mean ± SEM of 3 assays; for Ki: calculated from IC50 12G5 by Cheng-Prusoff, Kd of 12G5 151.5 pM
Method: Compounds were serially diluted in ice cold PBS and 12G5-APC antibody was diluted in cold PBS containing 1% FCS. […] Plates were incubated at 4 °C in the dark for 2 h. Afterwards cells were washed twice by centrifugation with PBS containing 1% FCS and fixed with 2% paraformaldehyde (PFA). During all pipetting steps, plates were kept cool by using a cooling pad. Antibody binding was analyzed by flow cytometry (FACS CytoFLEX; Beckman Coulter) by determination of the mean fluorescence intensity (MFI) of at least 5.000 cells (50.000 cells per well) or 1.000 cells (5.000 cells per well).
Ki calculation3 Ki=IC50/1+L/Kd
For Ki = inhibitory constant; IC50 = half maximal inhibition for 12G5 binding; [L] = 12G5 concentration; Kd = dissociation constant of 12G5.
(§1) Statistical analysis was performed in GraphPad Prism (version 8.3.0). IC50 and IC90 curves and the areas under the curves (AUC) were determined by nonlinear regression.

CXCR4-tropic HIV-1 [1] = details: TZM-bl cells; for IC50: read-out: IC50 HIV-1
CXCR4-tropic HIV-1 [2] = assay: microbe, parasite or virus in culture; details: Human immunodeficiency virus 1, TZM-bl, 72 h, read-out: IC50 HIV-1
[3] = Functional stability in human plasma read out by 12G5 competition; format: in vitro ADME; details: for half-life t1/2 in plasma / 12G5-competing activity after incubation in plasma / ability to block 12G5 binding after incubation in plasma / half-life at 20 µM: 37 °C; for 12G5-competing activity after incubation in plasma: 24 h (AMD3100 also 48 h); for ability to block 12G5 binding after incubation in plasma: plasma of the individual donor, up to 24 h; for half-life at 20 µM: human, plasma, read-out: half-life t1/2 in plasma
Method: The t = 0 sample was immediately taken and stored at − 80 °C. Plasma/compound or blood/compound mixture was then transferred to 37 °C and shook at 350 rpm. At given time points samples were taken and stored at − 80 °C. For measuring the functional activity of the plasma/peptide samples, the mixtures were thawed and serially diluted in ice cold PBS (starting with 100% sample). 12G5-APC antibody competition was then performed as described before. Note, that during the competition process the samples are 1:1 diluted with the antibody and the highest plasma concentration on cells was 50%. For blood/peptide functional stability, samples were thawed and centrifuged at 14,000 rpm for 3 min at 4 °C to remove cells and debris. The supernatant was then serially diluted in PBS (starting with 100% sample) and 12G5-antibody competition assay was performed. […] Afterwards cells were washed again and analyzed for bound antibody.
as §1

in vitro = in vitro ADME, human; details: for half-life at 20 µM: 20 µM in whole EDTA blood of an individual donor, 37 °C, read-out: half-life t1/2 in blood
Method: Compounds were 150-fold diluted in human plasma or whole human blood to reach final concentrations of 20 µM. The t = 0 sample was immediately taken and stored at − 80 °C. Plasma/compound or blood/compound mixture was then transferred to 37 °C and shook at 350 rpm. At given time points samples were taken and stored at − 80 °C. For measuring the functional activity of the plasma/peptide samples, the mixtures were thawed and serially diluted in ice cold PBS (starting with 100% sample). 12G5-APC antibody competition was then performed as described before. Note, that during the competition process the samples are 1:1 diluted with the antibody and the highest plasma concentration on cells was 50%. For blood/peptide functional stability, samples were thawed and centrifuged at 14,000 rpm for 3 min at 4 °C to remove cells and debris. The supernatant was then serially diluted in PBS (starting with 100% sample) and 12G5-antibody competition assay was performed. After the 2 h incubation, the cells were washed by centrifugation (1.300 rpm, 4 °C) and 50 µL of 1-step-Fix/Lyse solution (Thermo Fisher #00-5333-54) was added for 15 min at room temperature. Afterwards cells were washed again and analyzed for bound antibody.
Statistical analysis was performed in GraphPad Prism (version 8.3.0). IC50 and IC90 curves and the areas under the curves (AUC) were determined by nonlinear regression. For half-life calculations, the IC50 values for each time point as well as the AUCs were analyzed and normalized relative to t = 0. Activities were then determined ((IC50 (t = 0) / IC50 (t)) × 100) for each time point and half-lives determined by a One-Phase-Decay model.

SupT1 cells [4] = details: read-out: IC50 Migration
CXCR7 = details: cited from earlier work
CXCL12 migration = details: cited from earlier work
[5] = EPI-X4 sandwich ELISA; cited from earlier work
SupT1 cells [6] = assay: cells; details: Homo sapiens, SUP-T1, 4 h, read-out: IC50 Migration
[7] = administered AMD3100; cited from earlier work
[8] = molecular target: C-X-C chemokine receptor type 4 (CXCR4) (human (endogenous in SupT1)) (UniProt P61073)
[9] = molecular target: T1, C-X-C chemokine receptor type 4 (CXCR4) (human (endogenous in SupT1), UniProt P61073 1-352); assay: cell-based or functional assay
[10] = molecular target: T1, C-X-C chemokine receptor type 4 (CXCR4); assay: flow cytometry on cells; competition with APC-labelled anti-CXCR4 antibody 12G5 (0.245 nM final) on SupT1 cells (5000 cells per well for Ki, or 50,000); compounds in PBS, antibody in PBS with 1% FCS; 2 h at 4 °C in the dark; Ki calculated from IC50 by the Cheng-Prusoff transformation with the Kd of 12G5 (151.5 pM); details: one partner purified
[11] = molecular target: T2, C-X-C chemokine receptor type 4 (CXCR4) (human (endogenous in SupT1)), P61073
T2 chain: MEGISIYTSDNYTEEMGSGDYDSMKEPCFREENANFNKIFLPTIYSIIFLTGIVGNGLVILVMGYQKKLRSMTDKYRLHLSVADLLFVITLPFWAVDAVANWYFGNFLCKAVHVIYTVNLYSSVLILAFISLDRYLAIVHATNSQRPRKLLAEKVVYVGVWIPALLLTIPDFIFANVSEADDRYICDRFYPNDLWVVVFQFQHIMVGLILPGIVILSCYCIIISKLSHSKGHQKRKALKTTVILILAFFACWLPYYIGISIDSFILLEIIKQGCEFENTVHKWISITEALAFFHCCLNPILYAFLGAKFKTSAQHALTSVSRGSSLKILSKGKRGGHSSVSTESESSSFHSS

[12] = molecular target: T2, C-X-C chemokine receptor type 4 (CXCR4) …; assay: flow cytometry on cells; competition with APC-labelled anti-CXCR4 antibody 12G5 (0.245 nM final) on SupT1 cells (5000 cells per well for Ki, or 50,000); compounds in PBS, antibody in PBS with 1% FCS; 2 h at 4 °C in the dark; Ki calculated from IC50 by the Cheng-Prusoff transformation with the Kd of 12G5 (151.5 pM)
[13] = 20 µM in plasma of an individual donor
[14] = 20 µM in pooled human plasma, Fig. 4a
[15] = infection rate after 3 days, mean ± SEM of 3 assays
[16] = 20 µM in pooled human plasma (6 donors), from IC50 relative to t = 0, one-phase decay

## c1cnc(NCc2ccc(CNc3ncccn3)cc2)nc1 [MSX-122]
CXCR4; SupT1 cells
  effect on 12G5 binding: did not interfere with 12G5 binding
  IC50: > 100000 nM
CXCR4-tropic HIV-1 [1]
  effect on CXCR4-tropic HIV-1 infection: not affecting
CXCR4-tropic HIV-1 [2]
  IC50: > 10000 nM

## CC1(C)CN2C(CSC(=NC3CCCCC3)NC3CCCCC3)=CSC2=N1 [IT1t]
[3]; [13]
  half-life t1/2 in plasma: ca. 480 min
[3]; 20 µM in pooled human plasma
  12G5-competing activity after incubation in plasma: remained fully active
[3]; [14]
  half-life t1/2 in plasma: < 24 h
[3]
  ability to block 12G5 binding after incubation in plasma: moderately impaired
In vitro
  ability to block 12G5 binding after incubation in whole blood: moderately impaired
CXCR4-tropic HIV-1 [1]; [15]
  IC50: 5 ± 0.9 nM
SupT1 cells [4]
  IC50: 230 ± 20 nM

## LVRYTKKVPQVSTPTL [EPI-X4]
CXCR4; SupT1 cells
  IC50: 1780 ± 162 nM
CXCR4
  Ki: 677 ± 62 nM
[3]; [16]
  half-life at 20 µM: 0.383 h
CXCR4-tropic HIV-1 [1]
  IC50: 31000 nM
CXCR4-tropic HIV-1 [1]; [15]
  IC50: 31400 nM
CXCR7
  CXCR7 binding: does not bind CXCR7
CXCL12 migration
  IC50 to suppress CXCL12 migration: median micromolar range
[5]
  half-life in plasma: 17 min and ~ 17 min

## CC[C@H](C)[C@H](N)C(=O)N[C@H](C(=O)N[C@@H](CCCNC(=N)N)C(=O)N[C@@H](Cc1c[nH]c2ccccc12)C(=O)N[C@@H](CO)C(=O)N[C@@H](CCCCN)C(=O)N[C@@H](CCCCN)C(=O)N[C@H](C(=O)N1CCC[C@H]1C(=O)N[C@@H](CSSC[C@H](NC(=O)[C@@H]1CCCN1C(=O)[C@@H](NC(=O)[C@H](CCCCN)NC(=O)[C@H](CCCCN)NC(=O)[C@H](CO)NC(=O)[C@H](Cc1c[nH]c2ccccc12)NC(=O)[C@H](CCCNC(=N)N)NC(=O)[C@@H](NC(=O)[C@@H](N)[C@@H](C)CC)C(C)C)C(C)C)C(=O)N[C@H](C(=O)N[C@@H](CO)C(=O)O)C(C)C)C(=O)N[C@H](C(=O)N[C@@H](CO)C(=O)O)C(C)C)C(C)C)C(C)C [EPI-X4 WSC02x2] (I: H-IVRWSKKVPCVS-OH / II: H-IVRWSKKVPCVS-OH; disulfide I:10-II:10; N-terminus and C-terminus assumed)
[3]; [13]
  half-life at 20 µM: ~3 h
[3]; [16]
  half-life at 20 µM: 3.22 h
[3]; human plasma, value in discussion
  half-life at 20 µM: > 3 h
[3]; pooled human plasma, ratio of t1/2
  fold more stable than WSC02 in plasma: 19 fold
In vitro; human
  half-life at 20 µM: 1.33 h
In vitro; human, plasma
  stability in blood compared to plasma: less stable in blood compared to plasma

## c1cc(CN2CCCNCCNCCCNCC2)ccc1CN1CCCNCCNCCCNCC1 [AMD3100, AMD3100 octahydrochloride hydrate]
[3]; 20 µM in pooled human plasma
  12G5-competing activity after incubation in plasma: remained fully active
[3]; [13]
  half-life at 20 µM: > 24 h
[3]; [14]
  half-life at 20 µM: > 48 h
[3]; 20 µM in pooled human plasma, Fig. S5a, no unit at the value, time axis in min, estimated by eye
  half-life at 20 µM: > 24 h
[3]
  ability to block 12G5 binding after incubation in plasma: remained fully active
In vitro
  ability to block 12G5 binding after incubation in whole blood: remained fully active
In vitro; human
  half-life at 20 µM: > 24 h
SupT1 cells [6]
  IC50: 60 ± 13 nM
[7]
  fraction bound to plasma proteins: 58%
CXCR4-tropic HIV-1 [2]
  IC50: 36 ± 6 nM

## EPI-X4 (Endogenous Peptide Inhibitor of CXCR4)
[8]
  IC50 of inhibition of infection of TZM-bl reporter cells by CXCR4-tropic HIV-1 (NL4-3), β-galactosidase assay: 31400 nM

## CC(C)NCCCC[C@H](NC(=O)[C@H]1CCC(=O)N[C@@H](Cc2ccccc2)C(=O)N[C@@H](Cc2ccc(O)cc2)C(=O)N[C@@H](CCCCNC(C)C)C(=O)N[C@H](CCCNC(=N)N)C(=O)N[C@@H](Cc2ccc3ccccc3c2)C(=O)NCC(=O)N1)C(N)=O [LY2510924] (FY[Lys(iPr)][dR][2Nal]G[dE][Lys(iPr)]-NH2; lactam N-7)
CXCR4; SupT1 cells
  IC50: 151 ± 78 nM
CXCR4
  Ki: 58 ± 30 nM
CXCR4-tropic HIV-1 [1]; [15]
  IC50: 8 ± 0.8 nM
SupT1 cells [4]; 100 ng/mL CXCL12, 4 h, mean ± SEM of 3 assays
  IC50: 66 ± 8 nM

## NCCCCN(Cc1nc2ccccc2[nH]1)[C@H]1CCCc2cccnc21 [AMD070]
SupT1 cells [6]
  IC50: 152 ± 3 nM
CXCR4-tropic HIV-1 [2]
  IC50: 23 ± 4 nM

B1: EPI-X4 WSC02x2 (peptide)
chain: IVRWSKKVPCVS
modifications: also: homodimer via intermolecular disulfide, disulfide at 10, other end not in the chain
[9]
  IC50 of inhibition of SupT1 cell migration towards CXCL12 (100 ng/mL, transwell); the pair antagonized is CXCL12 with CXCR4: 2670 nM
  IC50 of inhibition of infection of TZM-bl reporter cells by CXCR4-tropic HIV-1 (NL4-3), β-galactosidase assay: 254 nM
[10]
  IC50: 182 nM
  Ki: 69 ± 12 nM

## IVRWSKKVPCVS (modifications not checked) [EPI-X4 WSC02]
[11]
  IC50 of inhibition of SupT1 cell migration towards CXCL12 (100 ng/mL, transwell); the pair antagonized is CXCL12 with CXCR4: 15800 nM
  IC50 of inhibition of infection of TZM-bl reporter cells by CXCR4-tropic HIV-1 (NL4-3), β-galactosidase assay: 257 nM
[12]
  IC50: 290 nM
  Ki: 111 nM

Source: article PMC7525492, “Microtiter plate-based antibody-competition assay to determine binding affinities and plasma/blood stability of CXCR4 ligands” (Scientific Reports, 2020)
